Measurements published in PubChem BioAssay AID1963964 (Molecular Pharmacology Branch, DTP, NCI, 2024).

Tested on: 997726-040-R-J2-PDC tumor spheroids, viability
Experiment: Anticancer human tumor 997726-040-R-J2-PDC patient-derived squamous cell lung carcinoma cell line growth inhibition [PI3K]
Conditions: spheroids with HUVEC and MSC; for IC50: curve of first compound; for viability, T/C: stronger effect = lower value
Procedure, shortened: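 Combination activity was assessed by viability in multicellular tumor spheroids carrying HUVEC and MSC components. Agents were tested with PI3K inhibitors from a Cmax-based top dose (or 10 microM) downward in half-log increments.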

[1] = second compound 0.0316 µM, first compound 0.0316 µM
[2] = second compound 0.0316 µM, first compound 0.1 µM
[3] = second compound 0.0316 µM, first compound 0.316 µM
[4] = second compound 0.0316 µM, first compound 1 µM
[5] = second compound 0.0316 µM, first compound 3.16 µM
[6] = second compound 0.0316 µM, first compound 10 µM
[7] = second compound 0.1 µM, first compound 0.0316 µM
[8] = second compound 0.1 µM, first compound 0.1 µM
[9] = second compound 0.1 µM, first compound 0.316 µM
[10] = second compound 0.1 µM, first compound 1 µM
[11] = second compound 0.1 µM, first compound 3.16 µM
[12] = second compound 0.1 µM, first compound 10 µM
[13] = second compound 0.316 µM, first compound 0.0316 µM
[14] = second compound 0.316 µM, first compound 0.1 µM
[15] = second compound 0.316 µM, first compound 0.316 µM
[16] = second compound 0.316 µM, first compound 1 µM
[17] = second compound 0.316 µM, first compound 3.16 µM
[18] = second compound 0.316 µM, first compound 10 µM
[19] = second compound 1 µM, first compound 0.0316 µM
[20] = second compound 1 µM, first compound 0.1 µM
[21] = second compound 1 µM, first compound 0.316 µM
[22] = second compound 1 µM, first compound 1 µM
[23] = second compound 1 µM, first compound 3.16 µM
[24] = second compound 1 µM, first compound 10 µM
[25] = second compound 3.16 µM, first compound 0.0316 µM
[26] = second compound 3.16 µM, first compound 0.1 µM
[27] = second compound 3.16 µM, first compound 0.316 µM
[28] = second compound 3.16 µM, first compound 1 µM
[29] = second compound 3.16 µM, first compound 3.16 µM
[30] = second compound 3.16 µM, first compound 10 µM
[31] = second compound 10 µM, first compound 0.0316 µM
[32] = second compound 10 µM, first compound 0.1 µM
[33] = second compound 10 µM, first compound 0.316 µM
[34] = second compound 10 µM, first compound 1 µM
[35] = second compound 10 µM, first compound 3.16 µM
[36] = second compound 10 µM, first compound 10 µM
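Further: spheroids exposed to compounds for seven days before readout.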

With `CC1(C)CCC(Nc2ncc(C(F)(F)F)c(-c3c[nH]c4c(P(C)(C)=O)c(C#N)ccc34)n2)CN1` (centres undefined) + CC(Nc1ncnc2nc[nH]c12)c1cc2cccc(Cl)c2c(=O)n1-c1ccccc1 the IC50 (second compound 0.0316 µM) was 496 nM, the IC50 (second compound 0.1 µM) was 3510 nM and the IC50 (second compound 0.316 µM) was 3300 nM. The IC50 (second compound 1 µM) was 31.6 nM, the IC50 (second compound 3.16 µM) was under 31.6 nM and the IC50 (second compound 10 µM) was under 31.6 nM. For the same compound, the viability, T/C [1] was 48.9%, the viability, T/C [2] was 45.7% and the viability, T/C [3] was 50%. The viability, T/C [4] was 59.5%, the viability, T/C [5] was 65.9% and the viability, T/C [6] was 29.6%. The viability, T/C [7] was 53.8%, the viability, T/C [8] was 51.6% and the viability, T/C [9] was 49.3%. The viability, T/C [10] was 48.5%, the viability, T/C [11] was 55.5% and the viability, T/C [12] was 33%. The viability, T/C [13] was 52.3%, the viability, T/C [14] was 47.6% and the viability, T/C [15] was 45.3%. It also gave a viability, T/C [16] of 53.3%, a viability, T/C [17] of 56% and a viability, T/C [18] of 26.5%. The viability, T/C [19] was 49.2%, the viability, T/C [20] was 46.2% and the viability, T/C [21] was 45.2%. For the same compound, the viability, T/C [22] was 44.7%, the viability, T/C [23] was 52.2% and the viability, T/C [24] was 27.3%. For the same compound, the viability, T/C [25] was 42.1%, the viability, T/C [26] was 40.7% and the viability, T/C [27] was 36%. For the same compound, the viability, T/C [28] was 39.3%, the viability, T/C [29] was 53.8% and the viability, T/C [30] was 21.7%. For the same compound, the viability, T/C [31] was 32%, the viability, T/C [32] was 29.2% and the viability, T/C [33] was 31.5%. The viability, T/C [34] was 37.7%, the viability, T/C [35] was 39.8% and the viability, T/C [36] was 14.1%.
Compound `CC1(C)CCC(CN2CCN(c3ccc(C(=O)NS(=O)(=O)c4ccc(NCC5CCOCC5)c([N+](=O)[O-])c4)c(Oc4cnc5[nH]ccc5c4)c3)CC2)=C(c2ccc(Cl)cc2)C1` + Cc1nc(NC(=O)N2CCCC2C(N)=O)sc1-c1ccnc(C(C)(C)C(F)(F)F)c1 has an IC50 (second compound 0.0316 µM) of 6130 nM, an IC50 (second compound 0.1 µM) of 5140 nM and an IC50 (second compound 0.316 µM) of 2490 nM. For the same compound, the IC50 (second compound 1 µM) was under 31.6 nM, the IC50 (second compound 3.16 µM) was under 31.6 nM and the IC50 (second compound 10 µM) was under 31.6 nM. For the same compound, the viability, T/C [1] was 84.2%, the viability, T/C [2] was 90.8% and the viability, T/C [3] was 86.1%. It also gave a viability, T/C [4] of 91.3%, a viability, T/C [5] of 76% and a viability, T/C [6] of 30.9%. It also gave a viability, T/C [7] of 73%, a viability, T/C [8] of 71.8% and a viability, T/C [9] of 74.9%. It also gave a viability, T/C [10] of 75.5%, a viability, T/C [11] of 67.4% and a viability, T/C [12] of 25.7%. For the same compound, the viability, T/C [13] was 58.3%, the viability, T/C [14] was 58.6% and the viability, T/C [15] was 56.2%. It also gave a viability, T/C [16] of 53.6%, a viability, T/C [17] of 49.5% and a viability, T/C [18] of 25.6%. The viability, T/C [19] was 48.9%, the viability, T/C [20] was 41% and the viability, T/C [21] was 39%. It also gave a viability, T/C [22] of 39.5%, a viability, T/C [23] of 39.2% and a viability, T/C [24] of 11.1%. It also gave a viability, T/C [25] of 25%, a viability, T/C [26] of 28.1% and a viability, T/C [27] of 27.2%. It also gave a viability, T/C [28] of 26.2%, a viability, T/C [29] of 24.5% and a viability, T/C [30] of 8.65%. For the same compound, the viability, T/C [31] was 14.8%, the viability, T/C [32] was 10.8% and the viability, T/C [33] was 7.16%. It also gave a viability, T/C [34] of 6.93%, a viability, T/C [35] of 5.25% and a viability, T/C [36] of 2.97%.
